Source: patent US8680113B2, “BMI-1 protein expression modulators” (PTC Therapeutics, Inc., priority 2008, dated 2014)

Each molecule was assayed on Bmi-1 (assay: Sandwich ELISA Assay (Bmi-1 ELISA in HT-1080 cells)).
Assay type: cell-based, human
How it was run: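 Lysate Bmi-1 was quantified against a recombinant GST-Bmi-1 standard (0-8000 pg/mL) by sandwich ELISA read at OD450 with OD570 reference. The ELISA used mouse monoclonal capture, rabbit anti-Bmi-1, HRP anti-rabbit IgG and TMB. Before lysis, HT-1080 cells seeded at 8000/well were exposed to compounds for 40-48 h at 37°C with 0.5% final DMSO.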

| Molecule | IC50 |
| --- | --- |
| Cc1nc2ccc(Cl)cn2c1-c1csc(Nc2cccc(F)c2)n1 [Cpd 215, 4-(6-chloro-2-methylimidazo[1,2-a]pyridin-3-yl)-N-(3-fluorophenyl)-1,3-thiazol-2-amine] | < 500 nM |
| CCCc1nc2ccccn2c1-c1csc(Nc2ccc(I)cc2)n1 [Cpd 174, N-(4-iodophenyl)-4-(2-propylimidazo[1,2-a]pyridin-3-yl)-1,3-thiazol-2-amine] | < 500 nM |
| 1-(3-{[4-(6-fluoro-2-methylimidazo[1,2-a]pyridin-3-yl)-1,3-thiazol-2-yl]amino}phenyl)ethanone [Cpd 238] | < 500 nM |
| Cc1nc2ccc(Cl)cn2c1-c1csc(Nc2ccc(C(C)C)cc2)n1 [Cpd 91, 4-(6-chloro-2-methylimidazo[1,2-a]pyridin-3-yl)-N-[4-(propan-2-yl)phenyl]-1,3-thiazol-2-amine] | < 500 nM |
| COc1ccc(Nc2nc(-c3c(C)nc4ccc(Cl)cn34)cs2)c(Br)c1 [Cpd 208, N-(2-bromo-4-methoxyphenyl)-4-(6-chloro-2-methylimidazo[1,2-a]pyridin-3-yl)-1,3-thiazol-2-amine] | < 500 nM |
| Cc1nc2ncccn2c1-c1csc(N(C)c2ccc(Br)cc2)n1 [Cpd 80, N-(4-bromophenyl)-N-methyl-4-(2-methylimidazo[1,2-a]pyrimidin-3-yl)-1,3-thiazol-2-amine] | < 500 nM |
| FC(F)(F)c1nc2ncccn2c1-c1csc(Nc2ccc3c(c2)OCO3)n1 [Cpd 154, N-(1,3-benzodioxol-5-yl)-4-[2-(trifluoromethyl)imidazo[1,2-a]pyrimidin-3-yl]-1,3-thiazol-2-amine] | < 500 nM |
| Clc1ccc2ncc(-c3csc(Nc4ccc(I)cc4)n3)n2c1 [Cpd 108, 4-(6-chloroimidazo[1,2-a]pyridin-3-yl)-N-(4-iodophenyl)-1,3-thiazol-2-amine] | < 500 nM |
| Cc1ccn2c(-c3csc(Nc4ccc5c(c4)OCO5)n3)c(C)nc2c1 [Cpd 63, N-(1,3-benzodioxol-5-yl)-4-(2,7-dimethylimidazo[1,2-a]pyridin-3-yl)-1,3-thiazol-2-amine] | < 500 nM |
| COc1ccc(Nc2nc(-c3c(C)nc4ccccn34)cs2)cc1F [Cpd 51, N-(3-fluoro-4-methoxyphenyl)-4-(2-methylimidazo[1,2-a]pyridin-3-yl)-1,3-thiazol-2-amine] | < 500 nM |
| COc1cccc(Nc2nc(-c3c(C)nc4c(Br)cccn34)cs2)c1 [Cpd 232, 4-(8-bromo-2-methylimidazo[1,2-a]pyridin-3-yl)-N-(3-methoxyphenyl)-1,3-thiazol-2-amine] | < 500 nM |
| COCCOc1ccc(Nc2nc(-c3c(C)nc4ccc(Cl)cn34)cs2)cc1 [Cpd 93, 4-(6-chloro-2-methylimidazo[1,2-a]pyridin-3-yl)-N-[4-(2-methoxyethoxy)phenyl]-1,3-thiazol-2-amine] | < 500 nM |
| Cc1nc2ncccn2c1-c1csc(Nc2ccc(C(C)C)cc2)n1 [Cpd 87, 4-(2-methylimidazo[1,2-a]pyrimidin-3-yl)-N-[4-(propan-2-yl)phenyl]-1,3-thiazol-2-amine] | < 500 nM |
| CCc1nc2ncccn2c1-c1csc(Nc2ccc(Cl)cc2)n1 [Cpd 147, N-(4-chlorophenyl)-4-(2-ethylimidazo[1,2-a]pyrimidin-3-yl)-1,3-thiazol-2-amine] | < 500 nM |
| Cc1ccc(Nc2nc(-c3c(C)nc4ccc(Cl)cn34)cs2)c(C)c1 [Cpd 214, 4-(6-chloro-2-methylimidazo[1,2-a]pyridin-3-yl)-N-(2,4-dimethylphenyl)-1,3-thiazol-2-amine] | < 500 nM |
| COc1ccc(Nc2nc(-c3c(C)nc4ccc(Cl)cn34)cs2)cc1Cl [Cpd 95, N-(3-chloro-4-methoxyphenyl)-4-(6-chloro-2-methylimidazo[1,2-a]pyridin-3-yl)-1,3-thiazol-2-amine] | < 500 nM |
| Cc1ccn2c(-c3csc(Nc4ccc(I)cc4)n3)c(C)nc2c1 [Cpd 69, 4-(2,7-dimethylimidazo[1,2-a]pyridin-3-yl)-N-(4-iodophenyl)-1,3-thiazol-2-amine] | < 500 nM |
| CCc1nc2ncccn2c1-c1csc(Nc2ccc(C(C)=O)cc2)n1 [Cpd 150, 1-(4-{[4-(2-ethylimidazo[1,2-a]pyrimidin-3-yl)-1,3-thiazol-2-yl]amino}phenyl)ethanone] | < 500 nM |
| Fc1cccc(Nc2nccc(-c3cnc4ccccn34)n2)c1 [Cpd 255, N-(3-fluorophenyl)-4-(imidazo[1,2-a]pyridin-3-yl)pyrimidin-2-amine] | < 500 nM |
| FC(F)(F)c1nc2ccccn2c1-c1csc(Nc2ccc3c(c2)OCO3)n1 [Cpd 195, N-(1,3-benzodioxol-5-yl)-4-[2-(trifluoromethyl)imidazo[1,2-a]pyridin-3-yl]-1,3-thiazol-2-amine] | < 500 nM |
| Cc1nc2ccccn2c1-c1csc(Nc2ccc(O)c(O)c2)n1 [Cpd 201, 4-{[4-(2-methylimidazo[1,2-a]pyridin-3-yl)-1,3-thiazol-2-yl]amino}benzene-1,2-diol] | < 500 nM |
| Cc1nc2ncccn2c1-c1csc(Nc2c(Br)cc(Br)cc2Br)n1 [Cpd 22, 4-(2-methylimidazo[1,2-a]pyrimidin-3-yl)-N-(2,4,6-tribromophenyl)thiazol-2-amine] | < 500 nM |
| Cc1nc2ccc(Cl)cn2c1-c1csc(Nc2ccc(Cl)c(Cl)c2)n1 [Cpd 111, 4-(6-chloro-2-methylimidazo[1,2-a]pyridin-3-yl)-N-(3,4-dichlorophenyl)-1,3-thiazol-2-amine] | < 500 nM |
| Cc1nc2c(Br)cccn2c1-c1csc(Nc2ccccc2Cl)n1 [Cpd 233, 4-(8-bromo-2-methylimidazo[1,2-a]pyridin-3-yl)-N-(2-chlorophenyl)-1,3-thiazol-2-amine] | < 500 nM |
| COc1ccc(Nc2nc(-c3c(C)nc4ccc(F)cn34)cs2)cc1F [Cpd 155, N-(3-fluoro-4-methoxyphenyl)-4-(6-fluoro-2-methylimidazo[1,2-a]pyridin-3-yl)-1,3-thiazol-2-amine] | < 500 nM |
| CC(=O)c1ccc(N(C)c2nccc(-c3c(C)nc4ccccn34)n2)cc1 [Cpd 167, 1-(4-{methyl[4-(2-methylimidazo[1,2-a]pyridin-3-yl)pyrimidin-2-yl]amino}phenyl)ethanone] | < 500 nM |
| CC(=O)c1ccc(Nc2nc(-c3c(C)nc4ccc(F)cn34)cs2)cc1 [Cpd 159, 1-(4-{[4-(6-fluoro-2-methylimidazo[1,2-a]pyridin-3-yl)-1,3-thiazol-2-yl]amino}phenyl)ethanone] | < 500 nM |
| Cc1nc2ccccn2c1-c1ccnc(N(C)c2ccc(I)cc2)n1 [Cpd 143, N-(4-iodophenyl)-N-methyl-4-(2-methylimidazo[1,2-a]pyridin-3-yl)pyrimidin-2-amine] | 500 to 1000 nM |
| Cc1nc2ncccn2c1-c1nc(Nc2ccc(Br)cc2)sc1C [Cpd 121, N-(4-bromophenyl)-5-methyl-4-(2-methylimidazo[1,2-a]pyrimidin-3-yl)-1,3-thiazol-2-amine] | < 500 nM |
| COc1cc(Br)c(Nc2nccc(-c3cnc4ccccn34)n2)c(Br)c1 [Cpd 249, N-(2,6-dibromo-4-methoxyphenyl)-4-(imidazo[1,2-a]pyridin-3-yl)pyrimidin-2-amine] | < 500 nM |

Further lines, results first:

| IC50 | Molecule |
| --- | --- |
| < 500 nM | COc1cccc(Nc2nccc(-c3cnc4ncccn34)n2)c1 [Cpd 260, 4-(imidazo[1,2-a]pyrimidin-3-yl)-N-(3-methoxyphenyl)pyrimidin-2-amine] |
| < 500 nM | COc1ccc(Nc2nccc(-c3cnc4ccccn34)n2)cc1 [Cpd 245, 4-(imidazo[1,2-a]pyridin-3-yl)-N-(4-methoxyphenyl)pyrimidin-2-amine] |
| < 500 nM | CC(=O)c1ccc(Nc2nc(-c3c(C)nc4ccc(Br)cn34)cs2)cc1 [Cpd 99, 1-(4-{[4-(6-bromo-2-methylimidazo[1,2-a]pyridin-3-yl)-1,3-thiazol-2-yl]amino}phenyl)ethanone] |
| < 500 nM | Clc1cccc(Nc2nccc(-c3cnc4ncccn34)n2)c1 [Cpd 269, N-(3-chlorophenyl)-4-(imidazo[1,2-a]pyrimidin-3-yl)pyrimidin-2-amine] |
| < 500 nM | CCCc1nc2ncccn2c1-c1csc(Nc2ccc(N(C)C)cc2)n1 [Cpd 183, N,N-dimethyl-N′-[4-(2-propylimidazo[1,2-a]pyrimidin-3-yl)-1,3-thiazol-2-yl]benzene-1,4-diamine] |
| < 500 nM | c1ccn2c(-c3ccnc(Nc4ccc5c(c4)OCO5)n3)cnc2c1 [Cpd 251, N-(1,3-benzodioxol-5-yl)-4-(imidazo[1,2-a]pyridin-3-yl)pyrimidin-2-amine] |
| < 500 nM | CCOc1ccc(Nc2nc(-c3c(C)nc4ncccn34)cs2)cc1 [Cpd 13, N-(4-ethoxyphenyl)-4-(2-methylimidazo[1,2-a]pyrimidin-3-yl)thiazol-2-amine] |
| < 500 nM | Cc1cccc(Nc2nc(-c3c(C)nc4ccc(Cl)cn34)cs2)c1 [Cpd 209, 4-(6-chloro-2-methylimidazo[1,2-a]pyridin-3-yl)-N-(3-methylphenyl)-1,3-thiazol-2-amine] |
| < 500 nM | Cc1ccn2c(-c3csc(Nc4ccc(N(C)C)cc4)n3)c(C)nc2c1 [Cpd 64, N′-[4-(2,7-dimethylimidazo[1,2-a]pyridin-3-yl)-1,3-thiazol-2-yl]-N,N-dimethylbenzene-1,4-diamine] |
| < 500 nM | COCCOc1cc(Br)c(Nc2nc(-c3c(C)nc4ccccn34)cs2)c(Br)c1 [Cpd 54, N-[2,6-dibromo-4-(2-methoxyethoxy)phenyl]-4-(2-methylimidazo[1,2-a]pyridin-3-yl)-1,3-thiazol-2-amine] |
| < 500 nM | Cc1nc2ccc(Br)cn2c1-c1csc(Nc2ccc3c(c2)OCO3)n1 [Cpd 82, N-(1,3-benzodioxol-5-yl)-4-(6-bromo-2-methylimidazo[1,2-a]pyridin-3-yl)-1,3-thiazol-2-amine] |
| < 500 nM | CCc1ccc(Nc2nc(-c3c(C)nc4ncccn34)cs2)cc1 [Cpd 86, N-(4-ethylphenyl)-4-(2-methylimidazo[1,2-a]pyrimidin-3-yl)-1,3-thiazol-2-amine] |
| < 500 nM | Cc1nc2ccc(Cl)cn2c1-c1csc(Nc2ccc3c(c2)OC(C)(C)O3)n1 [Cpd 219, 4-(6-chloro-2-methylimidazo[1,2-a]pyridin-3-yl)-N-(2,2-dimethyl-1,3-benzodioxol-5-yl)-1,3-thiazol-2-amine] |
